Results from PubChem BioAssay AID248 (DTP/NCI, 2004).
“And” between values parts separate entries of the source, which are not always exact repeats. Equal values may be shown once. Inconclusive results and toxic doses are left out. Cut-off read from the data, not from the text of the source: active = T/C of 150% or more; inactive = T/C below 125%.

Test system: L1210 leukemia ip in BDF1 mice, survival T/C
Assay: NCI In Vivo Anticancer Drug Screen. Data for tumor model L1210 Leukemia (intraperitoneal) in B6D2F1 (BDF1) mice
Settings: higher = longer survival
Method in brief: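 Ratio derived from survival: compound-dosed mice over vehicle-dosed mice, all bearing a transplantable tumor.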

[1] = endpoint: mean survival time, dose: 50.0 mg/kg/injection, schedule: Q01DX001 (ip), vehicle: carboxymethylcellulose (CMC)
[2] = endpoint: mean survival time, dose: 100.0 mg/kg/injection, schedule: Q01DX001 (ip), vehicle: carboxymethylcellulose (CMC)
[3] = endpoint: mean survival time, dose: 200.0 mg/kg/injection, schedule: Q01DX001 (ip), vehicle: carboxymethylcellulose (CMC)
[4] = endpoint: mean survival time, dose: 400.0 mg/kg/injection, schedule: Q01DX001 (ip), vehicle: carboxymethylcellulose (CMC)
[5] = endpoint: mean survival time, dose: 100.0 mg/kg/injection, schedule: Q01DX009 (ip), vehicle: Klucel (hydroxypropylcellulose) (HPC)
[6] = endpoint: mean survival time, dose: 200.0 mg/kg/injection, schedule: Q01DX009 (ip), vehicle: Klucel (hydroxypropylcellulose) (HPC)
[7] = endpoint: mean survival time, dose: 100.0 mg/kg/injection, schedule: Q01DX001 (ip), vehicle: saline
[8] = endpoint: mean survival time, dose: 200.0 mg/kg/injection, schedule: Q01DX001 (ip), vehicle: saline
[9] = endpoint: mean survival time, dose: 400.0 mg/kg/injection, schedule: Q01DX001 (ip), vehicle: saline
[10] = endpoint: mean survival time, dose: 50.0 mg/kg/injection, schedule: Q01DX009 (ip), vehicle: saline with Tween-80
[11] = endpoint: mean survival time, dose: 100.0 mg/kg/injection, schedule: Q01DX009 (ip), vehicle: saline with Tween-80
[12] = endpoint: mean survival time, dose: 100.0 mg/kg/injection, schedule: Q04DX003 (ip), vehicle: Klucel (hydroxypropylcellulose) (HPC)
[13] = endpoint: mean survival time, dose: 200.0 mg/kg/injection, schedule: Q04DX003 (ip), vehicle: Klucel (hydroxypropylcellulose) (HPC)
[14] = endpoint: mean survival time, dose: 400.0 mg/kg/injection, schedule: Q04DX003 (ip), vehicle: Klucel (hydroxypropylcellulose) (HPC)
[15] = endpoint: mean survival time, dose: 100.0 mg/kg/injection, schedule: Q01DX001 (ip), vehicle: saline with Tween-80
[16] = endpoint: mean survival time, dose: 200.0 mg/kg/injection, schedule: Q01DX001 (ip), vehicle: saline with Tween-80
[17] = endpoint: mean survival time, dose: 100.0 mg/kg/injection, schedule: Q04DX003 (ip), vehicle: saline with Tween-80
[18] = endpoint: mean survival time, dose: 200.0 mg/kg/injection, schedule: Q04DX003 (ip), vehicle: saline with Tween-80
[19] = endpoint: mean survival time, dose: 400.0 mg/kg/injection, schedule: Q04DX003 (ip), vehicle: saline with Tween-80

Measured: T/C

Cn1c2ccccc2c(=O)c2c(O)cc3c(c21)C=C(Br)C(C)(C)O3
inactive: [1] 88 % of control | [2] 93 % of control | [3] 98 % of control | [4] 90 % of control

Cc1ccc([N+](=O)[O-])cc1NC(=O)NCc1cccnc1
inactive: [5] 95 % of control | [6] 87 % of control | endpoint: mean survival time, dose: 400.0 mg/kg/injection, schedule: Q01DX009 (ip), vehicle: Klucel (hydroxypropylcellulose) (HPC) 92 % of control

O=C1CC2CCCC1C2 (stereo unspecified)
inactive: [7] 98 % of control | [8] 109 % of control | [9] 112 % of control

Cc1ccc(S(=O)(=O)N(SSN(c2ccccc2)S(=O)(=O)c2ccc(C)cc2)c2ccccc2)cc1
inactive: endpoint: mean survival time, dose: 100.0 mg/kg/injection, schedule: Q04DX002 (ip), vehicle: carboxymethylcellulose (CMC) 95 % of control and 98 % of control | endpoint: mean survival time, dose: 200.0 mg/kg/injection, schedule: Q04DX002 (ip), vehicle: carboxymethylcellulose (CMC) 95 % of control and 101 % of control | endpoint: mean survival time, dose: 400.0 mg/kg/injection, schedule: Q04DX002 (ip), vehicle: carboxymethylcellulose (CMC) 95 % of control and 106 % of control

CCc1c(Nc2ccc(Cl)c(Cl)c2)nc(N)[nH]c1=O
inactive: endpoint: mean survival time, dose: 100.0 mg/kg/injection, schedule: Q01DX Z (ip), vehicle: methylcellulose (MC) 99 % of control | endpoint: mean survival time, dose: 200.0 mg/kg/injection, schedule: Q01DX Z (ip), vehicle: methylcellulose (MC) 100 % of control

CCC[CH2][Sn]([I])([CH2]C)[CH2]C
inactive: endpoint: mean survival time, dose: 100.0 mg/kg/injection, schedule: Q04DX002 (ip), vehicle: Klucel (hydroxypropylcellulose) (HPC) 90 % of control | endpoint: mean survival time, dose: 400.0 mg/kg/injection, schedule: Q04DX002 (ip), vehicle: Klucel (hydroxypropylcellulose) (HPC) 101 % of control

CCn1c(COc2cc(C)cc(C)c2)c(COC(=O)c2cccc(Cl)c2)c2ccccc21
inactive: [10] 96 % of control | [11] 86 % of control | endpoint: mean survival time, dose: 200.0 mg/kg/injection, schedule: Q01DX009 (ip), vehicle: saline with Tween-80 91 % of control

O=C(NCCNC(c1ccccc1)C(NCCNC(=O)c1ccccc1)c1ccccc1)c1ccccc1 (stereo unspecified)
inactive: endpoint: mean survival time, dose: 25.0 mg/kg/injection, schedule: Q01DX009 (ip), vehicle: saline with Tween-80 94 % of control | [10] 89 % of control | [11] 97 % of control and 89 % of control | endpoint: mean survival time, dose: 400.0 mg/kg/injection, schedule: Q01DX009 (ip), vehicle: saline with Tween-80 89 % of control

Cc1ccccc1-c1nc2c(N)nc(N)nc2nc1N
inactive: endpoint: mean survival time, dose: 25.25 mg/kg/injection, schedule: Q01DX Z (ip), vehicle: carboxymethylcellulose (CMC) 104 % of control | [1] 101 % of control | endpoint: mean survival time, dose: 50.5 mg/kg/injection, schedule: Q01DX Z (ip), vehicle: carboxymethylcellulose (CMC) 106 % of control | endpoint: mean survival time, dose: 79.0 mg/kg/injection, schedule: Q04DX002 (ip), vehicle: Klucel (hydroxypropylcellulose) (HPC) 111 % of control | [2] 96 % of control | endpoint: mean survival time, dose: 118.0 mg/kg/injection, schedule: Q04DX002 (ip), vehicle: Klucel (hydroxypropylcellulose) (HPC) 97 % of control | endpoint: mean survival time, dose: 180.0 mg/kg/injection, schedule: Q04DX002 (ip), vehicle: Klucel (hydroxypropylcellulose) (HPC) 100 % of control | [3] 104 % of control | endpoint: mean survival time, dose: 270.0 mg/kg/injection, schedule: Q04DX002 (ip), vehicle: Klucel (hydroxypropylcellulose) (HPC) 111 % of control | [4] 98 % of control | endpoint: mean survival time, dose: 500.0 mg/kg/injection, schedule: Q01DX Z (ip), vehicle: methylcellulose (MC) 120 % of control | endpoint: mean survival time, dose: 750.0 mg/kg/injection, schedule: Q01DX Z (ip), vehicle: methylcellulose (MC) 114 % of control | endpoint: mean survival time, dose: 1000.0 mg/kg/injection, schedule: Q01DX Z (ip), vehicle: methylcellulose (MC) 101 % of control

CC(=O)S[C@@H]1CC2=CC(=O)CC[C@]2(C)[C@H]2CC[C@@]3(C)[C@@H](CC[C@@]34CCC(=O)O4)[C@H]12
inactive: endpoint: mean survival time, dose: 45.0 mg/kg/injection, schedule: Q01DX009 (sc), vehicle: steriod suspending solution 107 % of control | endpoint: mean survival time, dose: 90.0 mg/kg/injection, schedule: Q01DX009 (sc), vehicle: steriod suspending solution 102 % of control | [12] 90 % of control | endpoint: mean survival time, dose: 180.0 mg/kg/injection, schedule: Q01DX009 (sc), vehicle: steriod suspending solution 100 % of control | endpoint: median survival time, dose: 100.0 mg/kg/injection, schedule: Q01DX001 (ip), vehicle: water 97 % of control | endpoint: median survival time, dose: 100.0 mg/kg/injection, schedule: Q01DX009 (sc), vehicle: steriod suspending solution 101 % of control | endpoint: median survival time, dose: 200.0 mg/kg/injection, schedule: Q01DX001 (ip), vehicle: water 91 % of control | endpoint: median survival time, dose: 200.0 mg/kg/injection, schedule: Q01DX009 (sc), vehicle: steriod suspending solution 95 % of control | endpoint: median survival time, dose: 400.0 mg/kg/injection, schedule: Q01DX001 (ip), vehicle: water 97 % of control | endpoint: median survival time, dose: 400.0 mg/kg/injection, schedule: Q01DX009 (sc), vehicle: steriod suspending solution 96 % of control

NC1=CCNN1
inactive: endpoint: mean survival time, dose: 75.0 mg/kg/injection, schedule: Q01DX001 (ip), vehicle: saline 106 % of control | endpoint: mean survival time, dose: 150.0 mg/kg/injection, schedule: Q01DX001 (ip), vehicle: saline 93 % of control | endpoint: mean survival time, dose: 300.0 mg/kg/injection, schedule: Q01DX001 (ip), vehicle: saline 94 % of control

c1cc(N2CCOCC2)ccc1Cc1ccc(N2CCOCC2)cc1
inactive: [5] 102 % of control | [12] 93 % of control | [6] 109 % of control | [13] 101 % of control | [14] 93 % of control

Cc1ccc(Br)cc1Br
inactive: [7] 96 % of control | [8] 100 % of control | [9] 94 % of control

c1ccc(-c2ccc(-c3c(-c4ccccc4)ccc(-c4ccccc4)c3-c3ccccc3)cc2)cc1
inactive: [15] 104 % of control | [16] 104 % of control | endpoint: mean survival time, dose: 400.0 mg/kg/injection, schedule: Q01DX001 (ip), vehicle: saline with Tween-80 112 % of control

CCN1CCC2CN(C(=O)Nc3ccccc3)CCN2C1=O (stereo unspecified)
inactive: [17] 98 % of control | [18] 90 % of control | [19] 87 % of control

COC1CCS(=O)(=O)C1 (stereo unspecified)
inactive: [7] 95 % of control | endpoint: mean survival time, dose: 100.0 mg/kg/injection, schedule: Q01DX009 (ip), vehicle: saline 97 % of control | [8] 94 % of control | endpoint: mean survival time, dose: 200.0 mg/kg/injection, schedule: Q01DX009 (ip), vehicle: saline 98 % of control | [9] 94 % of control | endpoint: mean survival time, dose: 400.0 mg/kg/injection, schedule: Q01DX009 (ip), vehicle: saline 100 % of control

CCOC(=O)C1(C(=O)OCC)CCC2Nc3ccccc3CC(=O)N21 (stereo unspecified)
inactive: endpoint: mean survival time, dose: 25.0 mg/kg/injection, schedule: Q04DX003 (ip), vehicle: Klucel (hydroxypropylcellulose) (HPC) 101 % of control | endpoint: mean survival time, dose: 50.0 mg/kg/injection, schedule: Q04DX003 (ip), vehicle: Klucel (hydroxypropylcellulose) (HPC) 94 % of control | [12] 100 % of control

S=c1cccc[nH]1
inactive: [12] 101 % of control | [13] 102 % of control | [14] 96 % of control

CC1Oc2ccccc2OC1C(=O)NN (stereo unspecified)
inactive: [17] 95 % of control | [18] 97 % of control | [19] 106 % of control

OC(c1ccc(F)cc1)(c1ccc(F)cc1)C1CC1
inactive: [15] 106 % of control | [16] 105 % of control
